Measured values as given in patent US20260183407A1, “DYRK/CLK PROTACS AND USES THEREOF” (Arizona Board of Regents on Behalf of the University of …, priority 2022, published 2026).

Legend:
DYRK1A [1] = target: T1, DYRK1A (Homo sapiens, UniProt Q13627); experiment: HiBiT split luciferase assay of targeted degradation of DYRK1A in Flp-In T-REx 293 cells; type: cell-based; conditions: 300 nM compound, 24 h, HiBiT-tagged DYRK1A in Flp-In T-REx 293 cells, normalized to vehicle; read-out: Relative Degradation at 300 nM DYRK1A
T1 construct: purchased Eurofins; host or cells: E. coli BL21-derived (T7 phage display) or HEK-293
Text: (§1) The Flp-In T-REx 293 Cell Line and the pcDNA5/FRT/TO vector (Invitrogen) were used to generate stable cell clones for tetracyclin-inducible expression of DYRK1A and DYRK1B. These cells contain a single stably integrated Flp recognition target (FRT) site, which allows for site-specific integration of the expression cassette by the Flp (Flippase) recombinase. DYRK1 constructs were designed to contain a C-terminal HiBiT tag for quantitative detection of HiBiT-tagged proteins in cellular lysates with the help a split luciferase assay (Nano-Glo HiBiT Lytic Detection System, Promega). To monitor the targeted degradation of DYRK1A or DYRK1B, cells were seeded in 96-well plates (10,000 cells/per well) and treated with doxycyclineinal concentration 2 μg/ml) to induce DYRK1 expression. Compounds with presumed PROTAC activity were administered 24 h after seeding. After further incubation for 24 h, cells were grossly and microscopically inspected for overt toxicity. Cells were lysed in 100 μL ice-cold passive lysis buffer (PLB, Promega) by orbital shaking (30 min on ice) before lysates were centrifuged in PCR tube (20 min 20,000 g, RT). A 10 μl aliquot of the supernatant was subjected to the HiBiT lytic assay. Luminescence was quantified in an Orion Microplate luminometer (Berthold Detection System, Germany). All compounds were tested in duplicate or triplicate wells (technical replicates) and at least two independent experiments. Relative degradation was calculated by normalization to vehicle-treated control samples.

DYRK1A [2] = target: T1, DYRK1A; experiment: KdELECT kinase binding assay (Eurofins), DYRK1A; conditions: 11-point 3-fold dilution series, qPCR readout; read-out: Binding Affinity (Kd) DYRK1A
Protocol: (§2) KDs were obtained from Eurofins who used the following procedure: Kinase tagged T7 phase strains were prepared in an E. coli host derived from the BL21 strain. E. coli were grown to log-phase and infected with T7 phage and incubated with shaking at 32° C. until lysis. The lysates were centrifuged and filtered to remove cell debris. The remaining kinases were produced in HEK-293 cells and subsequently tagged with DNA for qPCR detection. Streptavidin-coated magnetic beads were treated with biotinylated small molecule ligands for 30 minutes at room temperature to generate affinity resins for kinase assays. The liganded beads were blocked with excess biotin and washed with locking buffer (SeaBlock (Pierce), 1% BSA, 0.05% Tween 20, 1 mM DTT) to remove unbound ligand and to reduce non-specific binding. Binding reactions were assembled by combining kinases, liganded affinity beads, and test compounds in 1× binding buffer (20% SeaBlock, 0.17× PBS, 0.05% Tween 20, 6 mM DTT). Test compounds were prepared as 111X stocks in 100% DMSO. Kds were determined using a 11-poin 3-fold compound dilution series with three DMSO control points. All compounds for Kd measurements are distributed by acoustic transfer (non-contact dispensing) in 100% DMSO. The compounds were then diluted directly into the assays such that the final concentration of DMSO was 0.9%. All reactions performed in polypropylene 384-well plate. Each was a final volume of 0.02 mL. The assay plates were incubated at room temperature with shaking for 1 hour and the affinity beads were washed with wash buffer (1×PBS, 0.05% Tween 20). The beads were then resuspended in elution buffer (1X PBS, 0.05% Tween 20, 0.5 µM nonbiotinylated affinity ligand) and incubated at room temperature with shaking for 30 minutes. The kinase concentration in the eluates was measured by qPCR.

DYRK1B [3] = target: T2, DYRK1B (Homo sapiens, UniProt Q9Y463); experiment: KdELECT kinase binding assay (Eurofins), DYRK1B; conditions: 11-point 3-fold dilution series, qPCR readout; read-out: Binding Affinity (Kd) DYRK1B
T2 construct: purchased Eurofins; host or cells: E. coli BL21-derived (T7 phage display) or HEK-293
T2 sequence (Q9Y463 whole entry, species assumed): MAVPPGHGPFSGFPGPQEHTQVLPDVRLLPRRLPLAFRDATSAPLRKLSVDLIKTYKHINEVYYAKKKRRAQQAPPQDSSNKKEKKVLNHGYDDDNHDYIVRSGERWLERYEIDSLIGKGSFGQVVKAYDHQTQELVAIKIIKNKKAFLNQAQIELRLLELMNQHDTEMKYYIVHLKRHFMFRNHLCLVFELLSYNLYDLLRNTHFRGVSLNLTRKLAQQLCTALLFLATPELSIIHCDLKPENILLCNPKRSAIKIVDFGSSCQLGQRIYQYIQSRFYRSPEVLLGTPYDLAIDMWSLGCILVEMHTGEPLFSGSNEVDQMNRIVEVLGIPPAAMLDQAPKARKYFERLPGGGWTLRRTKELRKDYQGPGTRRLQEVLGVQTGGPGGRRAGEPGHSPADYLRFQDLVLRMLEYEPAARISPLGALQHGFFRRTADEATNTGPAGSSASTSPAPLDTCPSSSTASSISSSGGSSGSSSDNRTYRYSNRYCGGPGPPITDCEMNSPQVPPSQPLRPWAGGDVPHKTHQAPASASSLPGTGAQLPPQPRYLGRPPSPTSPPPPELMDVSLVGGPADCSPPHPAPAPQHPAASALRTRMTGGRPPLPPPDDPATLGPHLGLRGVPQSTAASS
Protocol: as §2

DYRK1B [4] = target: T2, DYRK1B; experiment: HiBiT split luciferase assay of targeted degradation of DYRK1B in Flp-In T-REx 293 cells; type: cell-based; conditions: 300 nM compound, 24 h, HiBiT-tagged DYRK1B in Flp-In T-REx 293 cells, normalized to vehicle; read-out: Relative Degradation at 300 nM DYRK1B
Text: as §1

Cc1nc2ccc(-c3ccnc(N)c3)nc2n1-c1ccc(N2CCN(C(=O)CCCN3CCC(n4cc(CNc5cccc6c5C(=O)N(C5CCC(=O)NC5=O)C6=O)cn4)CC3)CC2)c(F)c1 (stereo not drawn) [Compound 16, 4-(((1-(1-(4-(4-(4-(5-(2-aminopyridin-4-yl)-2-methyl-3H-imidazo[4,5-b]pyridin-3-yl)-2-fluorophenyl)piperazin-1-yl)-4-oxobutyl)piperidin-4-yl)-1H-pyrazol-4-yl)methyl)amino)-2-(2,6-dioxopiperidin-3-yl)isoindoline-1,3-dione]
inhibition at 0.3 µM (DYRK1A [1]): 30 to 60%
Kd (DYRK1A [2]): < 10 nM
Kd (DYRK1B [3]): < 10 nM

Cc1nc2ccc(-c3ccnc(N)c3)nc2n1-c1ccc(N2CCN(c3ccc(N4CCC(C(=O)N5CCC(n6cc(CNc7cccc8c7C(=O)N(C7CCC(=O)NC7=O)C8=O)cn6)CC5)CC4)nc3)CC2)c(F)c1 (stereo not drawn) [Compound 26, 4-(((1-(1-(1-(5-(4-(4-(5-(2-aminopyridin-4-yl)-2-methyl-3H-imidazo[4,5-b]pyridin-3-yl)-2-fluorophenyl)piperazin-1-yl)pyridin-2-yl)piperidine-4-carbonyl)piperidin-4-yl)-1H-pyrazol-4-yl)methyl)amino)-2-(2,6-dioxopiperidin-3-yl)isoindoline-1,3-dione]
inhibition at 0.3 µM (DYRK1A [1]): > 60%
inhibition at 0.3 µM (DYRK1B [4]): 30 to 50%

Cc1nc2ccc(-c3ccnc(N)c3)nc2n1-c1ccc(N2CCN(CC#Cc3ccc(N4CCC(C(=O)N5CCC(n6cc(CNc7cccc8c7C(=O)N(C7CCC(=O)NC7=O)C8=O)cn6)CC5)CC4)nc3)CC2)c(C(F)(F)F)c1 (stereo not drawn) [Compound 24, 4-(((1-(1-(1-(5-(3-(4-(4-(5-(2-aminopyridin-4-yl)-2-methyl-3H-imidazo[4,5-b]pyridin-3-yl)-2-(trifluoromethyl)phenyl)piperazin-1-yl)prop-1-yn-1-yl)pyridin-2-yl)piperidine-4-carbonyl)piperidin-4-yl)-1H-pyrazol-4-yl)methyl)amino)-2-(2,6-dioxopiperidin-3-yl)isoindoline-1,3-dione]
inhibition at 0.3 µM (DYRK1A [1]): > 60%
inhibition at 0.3 µM (DYRK1B [4]): < 30%
Kd (DYRK1A [2]): 10 to 100 nM
Kd (DYRK1B [3]): 10 to 100 nM

Cc1nc2ccc(-c3ccnc(N)c3)nc2n1-c1cc(Cl)c(N2CCN(CC#Cc3ccc(N4CCC(C(=O)N5CCC(n6cc(CNc7cccc8c7C(=O)N(C7CCC(=O)NC7=O)C8=O)cn6)CC5)CC4)nc3)CC2)c(Cl)c1 (stereo not drawn) [Compound 27, 4-(((1-(1-(1-(5-(3-(4-(4-(5-(2-aminopyridin-4-yl)-2-methyl-3H-imidazo[4,5-b]pyridin-3-yl)-2,6-dichlorophenyl)piperazin-1-yl)prop-1-yn-1-yl)pyridin-2-yl)piperidine-4-carbonyl)piperidin-4-yl)-1H-pyrazol-4-yl)methyl)amino)-2-(2,6-dioxopiperidin-3-yl)isoindoline-1,3-dione]
inhibition at 0.3 µM (DYRK1A [1]): > 60%
inhibition at 0.3 µM (DYRK1B [4]): < 30%

Cc1nc2ccc(-c3ccnc(N)c3)nc2n1-c1ccc(N2CCN(C(=O)CCN3CCN(Cc4ccc(CNc5cccc6c5CN(C5CCC(=O)NC5=O)C6=O)cc4)CC3)CC2)c(F)c1 (stereo not drawn) [Compound 11, 3-(4-((4-((4-(3-(4-(4-(5-(2-aminopyridin-4-yl)-2-methyl-3H-imidazo[4,5-b]pyridin-3-yl)-2-fluorophenyl)piperazin-1-yl)-3-oxopropyl)piperazin-1-yl)methyl)benzyl)amino)-1-oxoisoindolin-2-yl)piperidine-2,6-dione]
inhibition at 0.3 µM (DYRK1A [1]): < 30%
Kd (DYRK1A [2]): 10 to 100 nM
Kd (DYRK1B [3]): 10 to 100 nM

Cc1nc2ccc(-c3ccnc(N)c3)nc2n1-c1ccc(N2CCN(C(=O)CCCCN3CCN(Cc4ccc(CNc5cccc6c5CN(C5CCC(=O)NC5=O)C6=O)cc4)CC3)CC2)c(F)c1 (stereo not drawn) [Compound 14, 3-(4-((4-((4-(5-(4-(4-(5-(2-aminopyridin-4-yl)-2-methyl-3H-imidazo[4,5-b]pyridin-3-yl)-2-fluorophenyl)piperazin-1-yl)-5-oxopentyl)piperazin-1-yl)methyl)benzyl)amino)-1-oxoisoindolin-2-yl)piperidine-2,6-dione]
inhibition at 0.3 µM (DYRK1A [1]): < 30%
Kd (DYRK1A [2]): < 10 nM
Kd (DYRK1B [3]): < 10 nM

Cc1nc2ccc(-c3ccnc(N)c3)nc2n1-c1ccc(N2C[C@H]3CN(CC#Cc4ccc(N5CCC(C(=O)N6CCC(n7cc(CNc8cccc9c8C(=O)N(C8CCC(=O)NC8=O)C9=O)cn7)CC6)CC5)nc4)C[C@H]3C2)c(F)c1 (stereo partly drawn) [Compound 22, 4-(((1-(1-(1-(5-(3-((3aR,6aS)-5-(4-(5-(2-aminopyridin-4-yl)-2-methyl-3H-imidazo[4,5-b]pyridin-3-yl)-2-fluorophenyl)hexahydropyrrolo[3,4-c]pyrrol-2 (1H)-yl)prop-1-yn-1-yl)pyridin-2-yl)piperidine-4-carbonyl)piperidin-4-yl)-1H-pyrazol-4-yl)methyl)amino)-2-(2,6-dioxopiperidin-3-yl)isoindoline-1,3-dione]
inhibition at 0.3 µM (DYRK1A [1]): 30 to 60%
inhibition at 0.3 µM (DYRK1B [4]): < 30%

Cc1nc2ccc(-c3ccnc(N)c3)nc2n1-c1ccc(N2CCN(CC#Cc3ccc(N4CCC(C(=O)N5CCC(n6cc(CNc7cccc8c7C(=O)N(C7CCC(=O)N(C)C7=O)C8=O)cn6)CC5)CC4)nc3)CC2)c(F)c1 (stereo not drawn) [Compound 31, 4-(((1-(1-(1-(5-(3-(4-(4-(5-(2-aminopyridin-4-yl)-2-methyl-3H-imidazo[4,5-b]pyridin-3-yl)-2-fluorophenyl)piperazin-1-yl)prop-1-yn-1-yl)pyridin-2-yl)piperidine-4-carbonyl)piperidin-4-yl)-1H-pyrazol-4-yl)methyl)amino)-2-(1-methyl-2,6-dioxopiperidin-3-yl)isoindoline-1,3-dione]
inhibition at 0.3 µM (DYRK1A [1]): < 30%
inhibition at 0.3 µM (DYRK1B [4]): < 30%

Cc1nc2ccc(-c3ccnc(N)c3)nc2n1-c1ccc(N2CCN(C(=O)CCCN3CCN(Cc4ccc(CNc5cccc6c5CN(C5CCC(=O)NC5=O)C6=O)cc4)CC3)CC2)c(F)c1 (stereo not drawn) [Compound 12, 3-(4-((4-((4-(4-(4-(4-(5-(2-aminopyridin-4-yl)-2-methyl-3H-imidazo[4,5-b]pyridin-3-yl)-2-fluorophenyl)piperazin-1-yl)-4-oxobutyl)piperazin-1-yl)methyl)benzyl)amino)-1-oxoisoindolin-2-yl)piperidine-2,6-dione]
inhibition at 0.3 µM (DYRK1A [1]): 30 to 60%
Kd (DYRK1A [2]): < 10 nM
Kd (DYRK1B [3]): < 10 nM

Cc1nc2ccc(-c3ccnc(N)c3)nc2n1-c1ccc(N2CCN(CC#Cc3ccc(C4(C(=O)N5CCC(n6cc(CNc7cccc8c7C(=O)N(C7CCC(=O)NC7=O)C8=O)cn6)CC5)CCC4)cc3)CC2)c(F)c1 (stereo not drawn) [Compound 28, 4-(((1-(1-(1-(4-(3-(4-(4-(5-(2-aminopyridin-4-yl)-2-methyl-3H-imidazo[4,5-b]pyridin-3-yl)-2-fluorophenyl)piperazin-1-yl)prop-1-yn-1-yl)phenyl)cyclobutane-1-carbonyl)piperidin-4-yl)-1H-pyrazol-4-yl)methyl)amino)-2-(2,6-dioxopiperidin-3-yl)isoindoline-1,3-dione]
inhibition at 0.3 µM (DYRK1A [1]): > 60%
Kd (DYRK1A [2]): < 10 nM
Kd (DYRK1B [3]): 10 to 100 nM

Cc1nc2ccc(-c3ccnc(N)c3)nc2n1-c1ccc(N2CCN(CCOCCOCCOCCOCCNc3cc4c(cc3F)C(=O)N(C3CCC(=O)NC3=O)C4=O)CC2)c(F)c1 (stereo not drawn) [Compound 13, 5-((14-(4-(4-(5-(2-aminopyridin-4-yl)-2-methyl-3H-imidazo[4,5-b]pyridin-3-yl)-2-fluorophenyl)piperazin-1-yl)-3,6,9,12-tetraoxatetradecyl)amino)-2-(2,6-dioxopiperidin-3-yl)-6-fluoroisoindoline-1,3-dione]
inhibition at 0.3 µM (DYRK1A [1]): < 30%
Kd (DYRK1A [2]): 10 to 100 nM
Kd (DYRK1B [3]): 10 to 100 nM
